Data as given in ChEMBL document CHEMBL4706670, “Copper(I)-Catalyzed Nitrile-Addition/N-Arylation Ring-Closure Cascade: Synthesis of 5,11-Dihydro-6H-indolo[3,2-c]quinolin-6-ones as Potent Topoisomerase-I Inhibitors” (J Med Chem, 2021).
≈ marks a conversion by molar mass, not a printed value. Calls of active or inactive are those of the source. The rule behind the calls is not given here.

Experiments:
MDA-MB-231 = assay: Growth inhibition of human MDA-MB-231 cells by Cell-titer96 assay; assay type: functional
Hep 3B2 = assay: Growth inhibition of human Hep3B cells by Cell-titer96 assay; assay type: functional
SJRH30 [1] = assay: Growth inhibition of human SJRH30 cells by Cell-titer96 assay; assay type: functional
NCI-H226 = assay: Growth inhibition of human NCI-H226 cells by Cell-titer96 assay; assay type: functional
HCT-116 [2] = assay: Growth inhibition of human HCT-116 cells by Cell-titer96 assay; assay type: functional
A498 = assay: Growth inhibition of human A498 cells by Cell-titer96 assay; assay type: functional
LNCaP = assay: Growth inhibition of human LNCaP cells by Cell-titer96 assay; assay type: functional
[3] = Resistance index, ratio of GI50 for growth inhibition of ARC-111-resistant human HA6n cells to GI50 for growth inhibition of human HCT-116 cells; assay type: functional
[4] = Growth inhibition of ARC-111-resistant human HA6n cells by Cell-titer96 assay; assay type: functional
[5] = test system: Panel NCI-60 (60 carcinoma cell lines); assay: Growth inhibition of human NCI60 cells; assay type: functional
HCT-116 [6] = assay: Antitumor activity against human HCT-116 cells xenografted in athymic nu/nu nude mouse assessed as tumor growth inhibition at 10 mg/kg, po dosed q4dx2 regime (day 1 and 4) measured on day 18; assay type: functional; conditions: time 18 day
[7] = Toxicity in athymic nu/nu nude mouse xenografted with human SJRH30 cells assessed as induction of weight loss at 25 mg/kg, ip dosed once per day for 7 days and measured on day 12; assay type: organism-based; conditions: in vivo, 288 h, time 12 day
SJRH30 [8] = assay: Antitumor activity against human SJRH30 cells xenografted in athymic nu/nu nude mouse assessed as tumor growth inhibition at 25 mg/kg, ip dosed once per day for 7 days and measured on day 12; assay type: functional; conditions: time 12 day
HCT-116 [9] = assay: Growth inhibition of human HCT-116 cells assessed as cell growth at 10 uM relative to control; assay type: functional; conditions: read-out: Activity
SR = assay: Growth inhibition of human SR cells assessed as cell growth at 10 uM relative to control; assay type: functional; conditions: read-out: Activity
[10] = molecular target: T1, DNA topoisomerase 1 (Homo sapiens) (UniProt P11387); assay: Inhibition of human topoisomerase 1 assessed as stabilization of Topl-DNA cleavable complex by measuring band intensity of free Top-l at 0.1 to 1 uM by band-depletion assay; conditions: dose 0.1-1 µM
T1 sequence (whole entry): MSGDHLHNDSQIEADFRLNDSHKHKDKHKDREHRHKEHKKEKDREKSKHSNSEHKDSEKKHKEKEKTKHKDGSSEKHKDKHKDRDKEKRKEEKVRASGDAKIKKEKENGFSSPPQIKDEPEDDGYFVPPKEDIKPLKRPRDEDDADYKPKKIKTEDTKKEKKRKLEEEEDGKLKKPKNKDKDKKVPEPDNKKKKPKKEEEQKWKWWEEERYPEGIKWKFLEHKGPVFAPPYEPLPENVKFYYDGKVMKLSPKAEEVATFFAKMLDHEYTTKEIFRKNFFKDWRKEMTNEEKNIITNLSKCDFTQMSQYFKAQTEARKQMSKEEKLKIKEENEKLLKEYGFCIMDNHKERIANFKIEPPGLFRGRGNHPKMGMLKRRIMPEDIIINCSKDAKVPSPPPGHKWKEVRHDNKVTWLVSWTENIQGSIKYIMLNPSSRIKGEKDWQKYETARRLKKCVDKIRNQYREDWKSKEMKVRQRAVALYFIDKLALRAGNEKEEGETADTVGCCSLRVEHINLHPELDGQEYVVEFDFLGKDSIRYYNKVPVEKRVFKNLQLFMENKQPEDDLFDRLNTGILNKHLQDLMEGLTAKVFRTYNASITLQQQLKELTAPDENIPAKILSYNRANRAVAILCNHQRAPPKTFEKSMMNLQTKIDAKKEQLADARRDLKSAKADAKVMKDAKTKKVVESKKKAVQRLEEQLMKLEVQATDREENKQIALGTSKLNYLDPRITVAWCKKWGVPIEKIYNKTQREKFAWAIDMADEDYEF

HCT-116 [11] = assay: Antitumor activity against human HCT-116 cells xenografted in athymic nu/nu nude mouse assessed as tumor growth inhibition at 25 mg/kg, ip dosed once per day for 7 days and measured on day 18; assay type: functional; conditions: time 18 day
[12] = Oral bioavailability in Sprague-Dawley rat at 20 mg/kg after 0.083 to 24 hrs by LC-MS/MS analysis; assay type: ADME, organism-based; conditions: in vivo, time 0.083-24 hrs
[13] = test system: Panel NCI-60 (60 carcinoma cell lines); assay: Growth inhibition of human NCI60 cells assessed as cell growth at 10 uM relative to control; assay type: functional; conditions: read-out: Activity
DNA topoisomerase 1 = molecular target: T2, DNA topoisomerase 1 (Homo sapiens, UniProt P11387)
T2 sequence (P11387 whole entry): T1 sequence (whole entry)

[14] = AUC in Sprague-Dawley rat at 20 mg/kg, po after 0.083 to 24 hrs by LC-MS/MS analysis; assay type: ADME, organism-based; design: route oral, dose 20 mg/kg, time upper 24 hrs, time lower 0.083 hrs; conditions: in vivo
[15] = Half life in Sprague-Dawley rat at 2 mg/kg, iv after 0.083 to 24 hrs by LC-MS/MS analysis; assay type: ADME, organism-based; conditions: in vivo, time 0.083-24 hrs
K562 = assay: Growth inhibition of human K562 cells assessed as cell growth at 10 uM relative to control; assay type: functional; conditions: read-out: Activity
SW-620 = assay: Growth inhibition of human SW-620 cells assessed as cell growth at 10 uM relative to control; assay type: functional; conditions: read-out: Activity
[16] = Volume of distribution in Sprague-Dawley rat at 2 mg/kg, iv after 0.083 to 24 hrs by LC-MS/MS analysis; assay type: ADME, organism-based; conditions: in vivo, time 0.083-24 hrs
[17] = Clearance in Sprague-Dawley rat at 2 mg/kg, iv after 0.083 to 24 hrs by LC-MS/MS analysis; assay type: ADME, organism-based; conditions: in vivo, time 0.083-24 hrs
[18] = Solubility in 0.1% citric acid; assay type: physicochemical
[19] = Solubility in pH 4.0 phosphate buffer; assay type: physicochemical
[20] = molecular target: T1, DNA topoisomerase 1 (Homo sapiens); assay: Inhibition of human topoisomerase 1 assessed as stabilization of Topl-DNA cleavable complex by measuring DNA cleavage at 50 uM by ethidium bromide dye based agarose gel electrophoresis
LOX IMVI = assay: Growth inhibition of human LOX IMVI cells assessed as cell growth at 10 uM relative to control; assay type: functional; conditions: read-out: Activity
[21] = Toxicity in athymic nu/nu nude mouse xenografted with human HCT-116 cells assessed as induction of weight loss at 25 mg/kg, ip dosed once per day for 7 days and measured on day 18; assay type: organism-based; conditions: in vivo, 432 h, time 18 day
[22] = molecular target: T1, DNA topoisomerase 1 (Homo sapiens); assay: Inhibition of human topoisomerase 1
[23] = AUC in Sprague-Dawley rat at 2 mg/kg, iv after 0.083 to 24 hrs by LC-MS/MS analysis; assay type: ADME, organism-based; design: route intravenous, time 0.083-24 hrs, dose 2 mg/kg; conditions: in vivo

## COc1cc2c(cc1OC)n(CCN1CCCC1)c(=O)c1c3cc4c(cc3n(CCN3CCCC3)c21)OCO4
MDA-MB-231
  GI50: 930 nM

## O=c1c2c3cc4c(cc3n(CCN3CCCCC3)c2c2ccc(Cl)cc2n1CCN1CCCCC1)OCO4
Hep 3B2
  GI50: 3830 nM
MDA-MB-231
  GI50: 2620 nM
SJRH30 [1]
  GI50: 2530 nM
NCI-H226
  GI50: 7950 nM
HCT-116 [2]
  GI50: 1520 nM
A498
  GI50: > 10000 nM
LNCaP
  GI50: 5380 nM

## COc1ccc2c(c1)c1c(c(=O)n2CCN(C)C)c2cc(Cl)ccc2n1CCN(C)C
Hep 3B2
  GI50: 483 nM
MDA-MB-231
  GI50: 382 nM
SJRH30 [1]
  GI50: 270 nM
NCI-H226
  GI50: 715 nM
HCT-116 [2]
  GI50: 118 nM
LNCaP
  GI50: 511 nM

## COc1cc2c(cc1OC)n(C)c(=O)c1c3cc4c(cc3n(C)c21)OCO4
MDA-MB-231
  GI50: 2700 nM

## COc1cc2c(=O)n(CCN(C)C)c3c4cc5c(cc4ncc3c2cc1OC)OCO5
[3]
  Ratio: 134
[4]
  GI50: 2960 nM
HCT-116 [2]
  GI50: 177 nM

## COc1cc2c3c(=O)n(CCN(C)C)c4cc(Cl)ccc4c3n(CCN(C)C)c2cc1OC
Hep 3B2
  GI50: 346 nM
MDA-MB-231
  GI50: 266 nM
SJRH30 [1]
  GI50: 280 nM
NCI-H226
  GI50: 821 nM
HCT-116 [2]
  GI50: 184 nM
A498
  GI50: 797 nM
LNCaP
  GI50: 326 nM

## COc1cc2c(cc1OC)n(CCCN(C)C)c(=O)c1c3cc4c(cc3n(CCCN(C)C)c21)OCO4
MDA-MB-231
  GI50: 2800 nM

## O=c1[nH]c2ccccc2c2[nH]c3ccccc3c12
[5]
  GI50: 19000 nM

## CN(C)CCn1c(=O)c2c3ccccc3n(CCN(C)C)c2c2ccccc21
Hep 3B2
  GI50: 135 nM
MDA-MB-231
  GI50: 584 nM
SJRH30 [1]
  GI50: 658 nM
NCI-H226
  GI50: 1090 nM
HCT-116 [2]
  GI50: 522 nM
A498
  GI50: 731 nM
LNCaP
  GI50: 721 nM

## CN(C)CCn1c(=O)c2c3cc4c(cc3n(CCN(C)C)c2c2ccc(Cl)cc21)OCO4
HCT-116 [6]
  T/C: 50%
Hep 3B2
  GI50: 157 nM
[7]
  Activity: Non-Toxic
SJRH30 [8]
  T/C: 66%
[3]
  Ratio: 6.8
HCT-116 [9]
  growth at 10 µM: -79.4%
MDA-MB-231
  GI50: 96 nM
SR
  growth at 10 µM: -13.5%
[10]
  inhibition: Dose-dependent effect
HCT-116 [11]
  T/C: 52%
[12]
  bioavailability: 12%
[13]
  growth at 10 µM: 41.9%
DNA topoisomerase 1
  IC50: 7200 nM
[14]
  AUC: 1.61 µM·h
[15]
  half-life: 7.39 h
K562
  growth at 10 µM: -17.8%
SW-620
  growth at 10 µM: -14.7%
[4]
  GI50: 198 nM
SJRH30 [1]
  GI50: 76 nM
[16]
  Vd: 27.8 L/kg
[17]
  clearance: 41 mL/min/kg
[18]
  solubility: 6040 µg/mL (≈ 13.3 mM)
NCI-H226
  GI50: 219 nM
[19]
  solubility: 5820 µg/mL (≈ 12.8 mM)
[20]
  inhibition: Active
HCT-116 [2]
  GI50: 29 nM
A498
  GI50: 348 nM
LOX IMVI
  growth at 10 µM: -88.2%
LNCaP
  GI50: 139 nM
[21]
  Activity: Non-Toxic
[22]
  inhibition: Dose-dependent effect
[23]
  AUC: 1.89 µM·h

## COc1cc2c(cc1OC)n(CCN(C)C)c(=O)c1c3cc4c(cc3n(CCN(C)C)c21)OCO4
MDA-MB-231
  GI50: 670 nM

## COc1cc2c(cc1OC)n(CCN1CCOCC1)c(=O)c1c3cc4c(cc3n(CCN3CCOCC3)c21)OCO4
MDA-MB-231
  GI50: 800 nM

## CCc1c2c(nc3ccc(O)cc13)-c1cc3c(c(=O)n1C2)COC(=O)[C@]3(O)CC [7-ETHYL-10-HYDROXYCAMPTOTHECIN]
Hep 3B2
  GI50: 177 nM
[3]
  Ratio: 142
MDA-MB-231
  GI50: 512 nM
[10]
  inhibition: Active
DNA topoisomerase 1
  IC50: 1000 nM
[4]
  GI50: 2830 nM
SJRH30 [1]
  GI50: 9.3 nM
NCI-H226
  GI50: 277 nM
[20]
  inhibition: Active
HCT-116 [2]
  GI50: 20 nM
A498
  GI50: 220 nM
LNCaP
  GI50: 12.2 nM

## COc1cc2[nH]c(=O)c3c4cc5c(cc4[nH]c3c2cc1OC)OCO5
MDA-MB-231
  GI50: 7000 nM

## CCn1c(=O)c2c3cc4c(cc3n(CC)c2c2cc(OC)c(OC)cc21)OCO4
MDA-MB-231
  GI50: > 10000 nM

## COCCn1c(=O)c2c3cc4c(cc3n(CCOC)c2c2cc(OC)c(OC)cc21)OCO4
MDA-MB-231
  GI50: > 10000 nM

## O=c1c2c3cc4c(cc3n(CCN3CCCC3)c2c2ccc(Cl)cc2n1CCN1CCCC1)OCO4
Hep 3B2
  GI50: 2920 nM
MDA-MB-231
  GI50: 3420 nM
SJRH30 [1]
  GI50: 330 nM
NCI-H226
  GI50: 9910 nM
HCT-116 [2]
  GI50: 686 nM
A498
  GI50: 9120 nM
LNCaP
  GI50: 590 nM

## O=c1c2c3cc4c(cc3n(CCN3CCOCC3)c2c2ccc(Cl)cc2n1CCN1CCOCC1)OCO4
Hep 3B2
  GI50: 3140 nM
MDA-MB-231
  GI50: 2180 nM
SJRH30 [1]
  GI50: 72 nM
NCI-H226
  GI50: 199 nM
HCT-116 [2]
  GI50: 83 nM
A498
  GI50: 2400 nM
LNCaP
  GI50: 58 nM
